Measurements published in patent US10562912B2 (C&C Research Laboratories, priority 2013, dated 2020).

What was measured:
Type in all cases: cell-based
DU-145 = assay: Cell growth inhibition assay, prostate cancer cell line DU-145; conditions: Homo sapiens, DU-145 prostate cancer cell line
Method in brief: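 Viability by CellTiter-Glo luminescence after 72–96 h of compound dosing at 37° C. under 5% CO2; DU-145 and HCT116 seeded at 3,000 cells/well, SW626 at 5,000 cells/well.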

HEL92.1.7 = assay: Cell growth inhibition assay, blood cancer cell line HEL92.1.7; conditions: Homo sapiens, HEL 92.1.7, HEL92.1.7 blood cancer cell line
Method in brief: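 Cells were seeded at 3,000/well (HCT116, DU-145) or 5,000/well (SW626 and the others) and exposed to serial compound dilutions for 72 to 96 h at 37 °C under 5% CO2. Viability was read as CellTiter-Glo luminescence against 0.1% DMSO and cell-free wells.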

STAT3 = molecular target: T1, STAT3 (Homo sapiens, UniProt P40763); assay: STAT3 reporter gene assay (luciferase), LNCaP stable cell line (pSTAT3-TA-luc), IL-6 stimulation
T1 construct: plasmid pSTAT3-TA-luc), which contains a stably operating STAT3 promoter; endogenous in cells
T1 sequence (P40763 whole entry): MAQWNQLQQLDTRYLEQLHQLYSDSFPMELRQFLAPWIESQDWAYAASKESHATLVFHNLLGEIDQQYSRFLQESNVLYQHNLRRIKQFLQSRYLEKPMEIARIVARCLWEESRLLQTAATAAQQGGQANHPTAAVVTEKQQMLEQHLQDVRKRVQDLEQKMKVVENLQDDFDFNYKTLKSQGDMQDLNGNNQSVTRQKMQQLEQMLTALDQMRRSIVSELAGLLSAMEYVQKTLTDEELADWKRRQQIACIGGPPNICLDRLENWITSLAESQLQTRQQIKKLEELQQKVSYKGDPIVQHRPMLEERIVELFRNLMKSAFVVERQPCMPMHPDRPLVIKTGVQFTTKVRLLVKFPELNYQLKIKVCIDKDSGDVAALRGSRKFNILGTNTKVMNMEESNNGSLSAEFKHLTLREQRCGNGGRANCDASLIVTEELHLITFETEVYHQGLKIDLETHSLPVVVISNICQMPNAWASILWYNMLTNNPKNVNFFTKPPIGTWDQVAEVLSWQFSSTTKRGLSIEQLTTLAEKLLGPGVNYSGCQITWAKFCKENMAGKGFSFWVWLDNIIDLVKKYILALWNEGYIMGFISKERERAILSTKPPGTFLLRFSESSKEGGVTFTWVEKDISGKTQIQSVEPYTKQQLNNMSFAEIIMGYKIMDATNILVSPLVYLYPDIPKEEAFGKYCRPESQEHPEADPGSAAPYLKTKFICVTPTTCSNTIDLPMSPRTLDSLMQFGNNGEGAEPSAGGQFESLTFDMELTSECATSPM
Method in brief: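 LNCaP cells stably carrying pSTAT3-TA-luc, in RPMI1640 with 3% DCC-FBS, were treated with compound and then stimulated with 10 ng/mL IL-6 for 24–48 h at 37 °C. Luciferase activity was measured in lysates. A parallel plate measured viability by CellTiter-Glo, with stimulated 0.1% DMSO wells as the positive control.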

U266 = assay: Cell growth inhibition assay, blood cancer cell line U266; conditions: Homo sapiens, U-266 blood cancer cell line
Experimental: The inhibitory effects of the compounds of the present invention against the growth of cancer cells were evaluated as shown below. The cancer cell lines including stomach cancer cell line (AGS), breast cancer cell lines (MDA-MB-231, MDA-MB-468, and BT-549), prostate cancer cell lines (LNCaP and DU-145), colon cancer cell line (HCT116), ovarian cancer cell line (SW626), liver cancer cell line (Hep3B), kidney cancer cell line (ACHN), lung cancer cell line (NCI-H23) and blood cancer cell lines (HEL92.1.7 and U266) were cultured under the protocol provided by each supplier. A medium supplemented with 10 ng/mL of IL-6 was used for LNCaP, a prostate cancer cell line, when treated with a drug. Each type of cells to be used in experiments were sub-cultured in a 96-well plate by counting the exact number of cells using Tali™ Image-based Cytometer (Life Technologies). In a 96-well plate, AGS, HCT116, and DU-145 were employed with 3,000 cells/well; NCI-H23, SW626, Hep3B, ACHN, BT-549, MDA-MB-231, HEL92.1.7, and U266 were employed with 5,000 cells/well; and LNCaP and MDA-MB-468 were employed with 10,000 cells/well. The cells were treated with the compounds listed in Examples which were diluted in various concentrations. Upon completion of the compounds treatment, AGS, HCT116, SW626, DU145, NCI-H23, Hep3B, ACHN, BT-549, LNCaP, HEL92.1.7, and U266 cells were cultured at 37° C. under 5% CO2 for from 72 to 96 hours, and MDA-MB-231 and MDA-MB-468 cells were cultured at 37° C. in air for from 72 to 96 hours. Subsequently, the cells were observed under microscope and drug precipitation and particular findings were investigated and recorded. And then, the 96-well plate was placed at room temperature for 30 minutes, added with 20 μL/well of CellTiter-Glo solution (Cat No. G7573, Promega) and shaken for 10 minutes, followed by being subjected to the measurement using PHERAstar™ microplate reader (BMG LABTECH) according to the supplier's general luminometer protocol. Wells where only culture liquid added without cell plating were used as a negative control, whereas wells where culture liquid containing 0.1% DMSO instead of the compounds listed in Examples were used as a positive control.

LNCaP = assay: Cell growth inhibition assay, prostate cancer cell line LNCaP (medium with 10 ng/mL IL-6); conditions: Homo sapiens, medium supplemented with 10 ng/mL of IL-6, 10,000 cells/well
AGS = assay: Cell growth inhibition assay, stomach cancer cell line AGS; conditions: Homo sapiens; AGS stomach cancer cell line, 3,000 cells/well
MDA-MB-231 = assay: Cell growth inhibition assay, breast cancer cell line MDA-MB-231; conditions: Homo sapiens; MDA-MB-231 breast cancer cell line, 5,000 cells/well

Structure (SMILES) | IC50 (DU-145) | IC50 (HEL92.1.7) | IC50 (STAT3) | IC50 (U266) | IC50 (LNCaP) | IC50 (AGS) | IC50 (MDA-MB-231)
CCCOc1cc(OC(F)(F)F)cc(C(C)(C)c2cc(Cl)cc(NC(=O)c3cc4cc(NS(C)(=O)=O)ccc4s3)c2)c1 [Example 73, N-(3-chloro-5-(2-(3-propoxy-5-(trifluoromethoxy)phenyl)propan-2-yl)phenyl)-5-(methylsulfonamido)benzo[b]thiophene-2-carboxamide] | 0.006 µM | 0.056 µM | 0.01 µM | 0.058 µM | 0.033 µM | – | –
CS(=O)(=O)Nc1ccc2cc(C(=O)Nc3cc(OCC#N)cc(-c4ccc(F)cc4F)c3)[nH]c2c1 [Example 368, N-(5-(cyanomethoxy)-2′,4′-difluoro-[1,1′-biphenyl]-3-yl)-6-(methylsulfonamido)-1H-indole-2-carboxamide] | – | – | 2.7 µM | – | 9.8 µM | 11.5 µM | 1.7 µM
CS(=O)(=O)Nc1ccc2cc(C(=O)Nc3cc(OCC(F)F)cc(-c4ccc(F)cc4F)c3)[nH]c2c1 [Example 366, N-(5-(2,2-difluoroethoxy)-2′,4′-difluoro-[1,1′-biphenyl]-3-yl)-6-(methylsulfonamido)-1H-indole-2-carboxamide] | – | – | 1.2 µM | – | 6.2 µM | 8.9 µM | 0.58 µM
CN(c1ccc2cc(C(=O)Nc3cc(Br)cc(-c4ccc(F)cc4F)c3)n(C)c2c1)S(C)(=O)=O [Example 341, N-(5-bromo-2′,4′-difluoro-[1,1′-biphenyl]-3-yl)-1-methyl-6-(N-methylmethylsulfonamido)-1H-indole-2-carboxamide] | – | – | 3.3 µM | – | 6.2 µM | 5.3 µM | 7.5 µM
COc1cc(NC(=O)c2cc3ccc(N(C)S(C)(=O)=O)cc3[nH]2)cc(-c2ccc(F)cc2F)c1 [Example 347, N-(2′,4′-difluoro-5-methoxy-[1,1′-biphenyl]-3-yl)-6-(N-methylmethylsulfonamido)-1H-indole-2-carboxamide] | – | – | 1.5 µM | – | 7.9 µM | 19.7 µM | 0.61 µM
CS(=O)(=O)Nc1ccc2cc(C(=O)Nc3cc(C#N)cc(S(=O)(=O)c4cccc(OC(F)(F)F)c4)c3)[nH]c2c1 [Example 399, N-(3-cyano-5-((3-(trifluoromethoxy)phenyl)sulfonyl)phenyl)-6-(methylsulfonamido)-1H-indole-2-carboxamide] | – | – | 2.8 µM | – | > 10 µM | 13.2 µM | 3.4 µM
CS(=O)(=O)Nc1ccc2c(C(=O)Nc3cccc(-c4ccc(F)cc4F)c3)c[nH]c2c1 [Example 275, N-(2′,4′-difluoro-[1,1′-biphenyl]-3-yl)-6-(methylsulfonamido)-1H-indole-3-carboxamide] | – | – | 3.3 µM | – | 9 µM | 5.7 µM | > 10 µM
CC(C)COc1cc(NC(=O)c2cc3ccc(NS(C)(=O)=O)cc3[nH]2)cc(S(=O)(=O)c2cccc(OC(F)(F)F)c2)c1 [Example 400, N-(3-isobutoxy-5-((3-(trifluoromethoxy)phenyl)sulfonyl)phenyl)-6-(methylsulfonamido)-1H-indole-2-carboxamide] | – | – | 3.2 µM | – | > 10 µM | 14.9 µM | 3.5 µM
COc1cc(NC(=O)c2cc3ccc(NS(C)(=O)=O)cc3[nH]2)cc(S(=O)(=O)c2cccc(OC(F)(F)F)c2)c1 [Example 397, N-(3-methoxy-5-((3-(trifluoromethoxy)phenyl)sulfonyl)phenyl)-6-(methylsulfonamido)-1H-indole-2-carboxamide] | – | – | 3 µM | – | 5.8 µM | 8.7 µM | 2.8 µM
CS(=O)(=O)Nc1ccc2cc(C(=O)Nc3cc(C#N)cc(-c4ccc(F)cc4F)c3)[nH]c2c1 [Example 301, N-(5-cyano-2′,4′-difluoro-[1,1′-biphenyl]-3-yl)-6-(methylsulfonamido)-1H-indole-2-carboxamide] | – | – | 3.3 µM | – | 3.9 µM | 5.7 µM | 0.72 µM
CS(=O)(=O)Nc1ccc2cc(C(=O)Nc3cc(OCC(F)F)cc(C(F)(F)c4cccc(C#N)c4)c3)[nH]c2c1 [Example 391, N-(3-((3-cyanophenyl)difluoromethyl)-5-(2,2-difluoroethoxy)phenyl)-6-(methylsulfonamido)-1H-indole-2-carboxamide] | – | – | 2.4 µM | – | > 10 µM | 18.1 µM | 3.3 µM
CS(=O)(=O)Nc1ccc2cc(C(=O)Nc3cccc(-c4cccnc4C(F)(F)F)c3)[nH]c2c1 [Example 293, 6-(methylsulfonamido)-N-(3-(2-(trifluoromethyl)pyridin-3-yl)phenyl)-1H-indole-2-carboxamide] | – | – | 2.7 µM | – | 4.6 µM | 24.6 µM | 1 µM
CS(=O)(=O)Nc1ccc2cc(C(=O)Nc3cccc(-c4ccccc4C(F)(F)F)c3)[nH]c2c1 [Example 260, 6-(methylsulfonamido)-N-(2′-(trifluoromethyl)-[1,1′-biphenyl]-3-yl)-1H-indole-2-carboxamide] | – | – | 0.71 µM | – | 4.1 µM | 2.7 µM | 0.92 µM
CS(=O)(=O)Nc1ccc2cc(C(=O)Nc3cc(OCC#N)cc(C(F)(F)c4cccc(C#N)c4)c3)[nH]c2c1 [Example 393, N-(3-(cyanomethoxy)-5-((3-cyanophenyl)difluoromethyl)phenyl)-6-(methylsulfonamido)-1H-indole-2-carboxamide] | – | – | > 10 µM | – | > 10 µM | 10.3 µM | 5 µM

Next, values leading:

IC50 (DU-145) | IC50 (HEL92.1.7) | IC50 (STAT3) | IC50 (U266) | IC50 (LNCaP) | IC50 (AGS) | IC50 (MDA-MB-231) | Structure (SMILES)
0.049 µM | 0.19 µM | 0.12 µM | 0.18 µM | 0.24 µM | – | – | CC(C)Oc1cc(CN2CCOCC2)cc(C(C)(C)c2cc(Br)cc(NC(=O)c3cc4cc(NS(C)(=O)=O)ccc4s3)c2)c1 [Example 122, N-(3-bromo-5-(2-(3-isopropoxy-5-(morpholinomethyl)phenyl)propan-2-yl)phenyl)-5-(methylsulfonamido)benzo[b]thiophene-2-carboxamide]
– | – | 1.6 µM | – | 2.6 µM | 5.2 µM | 1.2 µM | CS(=O)(=O)Nc1ccc2cc(C(=O)Nc3cc(C(F)(F)F)cc(S(=O)(=O)c4cccc(OC(F)(F)F)c4)c3)[nH]c2c1 [Example 398, 6-(methylsulfonamido)-N-(3-((3-(trifluoromethoxy)phenyl)sulfonyl)-5-(trifluoromethyl)phenyl)-1H-indole-2-carboxamide]
– | – | 3.7 µM | – | 2.5 µM | 9.6 µM | 1.1 µM | CS(=O)(=O)Nc1ccc2cc(C(=O)Nc3cccc(C(F)(F)c4cccc(C#N)c4)c3)[nH]c2c1 [Example 390, N-(3-((3-cyanophenyl)difluoromethyl)phenyl)-6-(methylsulfonamido)-1H-indole-2-carboxamide]
– | – | 0.39 µM | – | 5 µM | 9.6 µM | 0.52 µM | CN(c1ccc2cc(C(=O)Nc3cc(Br)cc(-c4ccc(F)cc4F)c3)[nH]c2c1)S(C)(=O)=O [Example 342, N-(5-bromo-2′,4′-difluoro-[1,1′-biphenyl]-3-yl)-6-(N-methylmethylsulfonamido)-1H-indole-2-carboxamide]
– | – | > 10 µM | – | 7.2 µM | 4.8 µM | > 10 µM | COc1cc(NC(=O)c2cc3ccc(N(C)S(C)(=O)=O)cc3n2C)cc(-c2ccc(F)cc2F)c1 [Example 348, N-(2′,4′-difluoro-5-methoxy-[1,1′-biphenyl]-3-yl)-1-methyl-6-(N-methylmethylsulfonamido)-1H-indole-2-carboxamide]
– | – | 2.5 µM | – | 8.9 µM | 11.8 µM | 1.2 µM | CS(=O)(=O)Nc1ccc2cc(C(=O)Nc3cccc(S(=O)(=O)c4cccc(OC(F)(F)F)c4)c3)[nH]c2c1 [Example 396]
